In article PMC10300102, “In vivo inhibition of nuclear ACE2 translocation protects against SARS-CoV-2 replication and lung damage through epigenetic imprinting” (Nature Communications, 2023):
Several values for one entry are separate records, joined by “and”; a condition that tells them apart may be missing. Identical values can stand only once. Where a SMILES comes first, the peptide text is derived from it. The star is where a group is joined. Myristoyl = CCCCCCCCCCCCCC(=O)*

Assays:
[1] = test system: CD14+ monocytes; format: cell-based, human
[2] = test system: NFACT1, C-Rel, ACE2, pPKC-zeta, Nurr1/Nur77, HDAC1 or NFKB p50; format: cell-based; settings: Fig. 1d
[3] = Mouse tolerance studies; format: in vivo, C57BL/6 J mice; parameters: Mouse organ weight - i.v. treatment, Brain / Mouse organ weight - i.v. treatment, Heart / Mouse organ weight - i.v. treatment, Kidney / Mouse organ weight - i.v. treatment, Liver / Mouse organ weight - i.v. treatment, Lungs / Mouse organ weight - i.v. treatment, Spleen: unit not given here; settings: for Mouse organ weight - i.v. treatment, Brain / Mouse organ weight - i.v. treatment, Heart / Mouse organ weight - i.v. treatment, Kidney / Mouse organ weight - i.v. treatment, Liver / Mouse organ weight - i.v. treatment, Lungs / Mouse organ weight - i.v. treatment, Spleen: S 1f, mean, N 5
Method: For NACE2i intraperitoneal (i.p.) studies, female C57BL/6 J mice (6-8 weeks, 3 per group) were treated with a single bolus dose of NACE2i at 3, 10, 30, or 100 mg/kg intraperitoneally for seven days. For NACE2i intravenous (i.v.) studies, male C57BL/6 J mice (6–8 weeks, 5 per group) were treated with daily bolus doses of either sodium chloride 0.9% vehicle or NACE2i at 3, 10, or 30 mg/kg intravenously for six days. For ACE2i studies, male C57BL/6 J mice (6 weeks, 5 per group) were treated with daily bolus doses of either saline vehicle or ACE2i at 10, 30, or 100 mg/kg intravenously or at 3, 10, and 30 mg/kg intranasally (i.n.) for six days. All treatments were administered on day 1, and all mice were observed and weighed daily prior to being euthanized for organ examination. All mice were purchased from the Animal Resources Centre (Canning Vale, Western Australia, Australia) and studies were carried out by Agilex Biolabs (St Lucia, Queensland, Australia). Animals were maintained in housing rooms under controlled environmental conditions: individually ventilated cages (IVCs) with a 12/12 light/dark cycle. The ambient temperature is set to 20–25 °C and relative humidity at 30-70% rH. The University of Queensland Animal Ethics Committee assessed and approved all studies (project code 2021/AE000659).

[4] = i.p. single bolus 10 mg/kg, n=3
[5] = i.p. single bolus 30 mg/kg, n=3
[6] = i.p. single bolus 100 mg/kg, n=3
[7] = i.v. daily for 6 days 3 mg/kg, n=5
[8] = i.v. daily for 6 days 10 mg/kg, n=5
[9] = i.v. daily for 6 days 30 mg/kg, n=5

## CCCCCCCCCCCCCC(=O)N[C@H](C(=O)NCC(=O)N[C@H](C(=O)N[C@@H](CCCNC(=N)N)C(=O)N[C@@H](CC(=O)O)C(=O)N[C@@H](CCCNC(=N)N)C(=O)N[C@@H](CCCCN)C(=O)N[C@@H](CCCCN)C(=O)N[C@@H](CCCCN)C(=O)N[C@@H](CC(N)=O)C(=O)N[C@@H](CCCCN)C(=O)N[C@@H](C)C(=O)N[C@@H](CCCNC(=N)N)C(=O)N[C@@H](CO)C(=O)O)[C@@H](C)CC)[C@@H](C)O [NACE2i] (Myristoyl-TGIRDRKKKNKARS-OH)
[1]
  ACE2me expression in CD14+ monocytes: induced
  CD14+ACE2 NFI: 581.219 and 687.373 and 742.928 and 1006.4 and 850.738 and 975.203 and 677.429 and 828.535
  IL-6 expression in CD14+ monocytes: significantly decreased
  nuclear ACE2 expression in CD14+ monocytes: significantly decreased
  nuclear ACE2 expression in infected CD14+ monocytes: reduced
[2]
  selectivity for nuclear ACE2 versus other nuclear proteins of the importin pathway (NFI): specifically targets nuclear ACE2 and not other nuclear proteins
[3]; IP route, 3 mg/kg, n = 3
  Diarrhoea - Mild (number of animals): 0
  No abnormalities (number of animals): 3
  Palpebral Closure - Mild (number of animals): 0
  Piloerection - Mild (number of animals): 0
  Reduced Activity - Mild (number of animals): 0
  Reduced Activity - Moderate (number of animals): 0
  Right limb raised - Mild (number of animals): 0
[3]; IP route, 10 mg/kg, n = 3
  Diarrhoea - Mild (number of animals): 0
  No abnormalities (number of animals): 3
  Palpebral Closure - Mild (number of animals): 0
  Piloerection - Mild (number of animals): 0
  Reduced Activity - Mild (number of animals): 0
  Reduced Activity - Moderate (number of animals): 0
  Right limb raised - Mild (number of animals): 0
[3]; IP route, 30 mg/kg, n = 3
  Diarrhoea - Mild (number of animals): 0
  No abnormalities (number of animals): 0
  Palpebral Closure - Mild (number of animals): 1
  Piloerection - Mild (number of animals): 0
  Reduced Activity - Mild (number of animals): 3
  Reduced Activity - Moderate (number of animals): 0
  Right limb raised - Mild (number of animals): 3
[3]; IP route, 100 mg/kg, n = 3
  Diarrhoea - Mild (number of animals): 1
  No abnormalities (number of animals): 0
  Palpebral Closure - Mild (number of animals): 0
  Piloerection - Mild (number of animals): 2
  Reduced Activity - Mild (number of animals): 2
  Reduced Activity - Moderate (number of animals): 2
  Right limb raised - Mild (number of animals): 0
[3]; IV route, 3 mg/kg, n = 5
  Hunched Posture - Mild (number of animals): 0
  No abnormalities (number of animals): 5
  Palpebral Closure - Mild (number of animals): 0
  Piloerection - Mild (number of animals): 0
  Reduced Activity - Mild (number of animals): 0
  Reduced Activity - Moderate (number of animals): 0
  Tremors - Mild (number of animals): 0
[3]; IV route, 10 mg/kg, n = 5
  Hunched Posture - Mild (number of animals): 0
  No abnormalities (number of animals): 5
  Palpebral Closure - Mild (number of animals): 0
  Piloerection - Mild (number of animals): 0
  Reduced Activity - Mild (number of animals): 0
  Reduced Activity - Moderate (number of animals): 0
  Tremors - Mild (number of animals): 0
[3]; IV route, 30 mg/kg, n = 5
  Hunched Posture - Mild (number of animals): 1
  No abnormalities (number of animals): 0
  Palpebral Closure - Mild (number of animals): 1
  Piloerection - Mild (number of animals): 0
  Reduced Activity - Mild (number of animals): 4
  Reduced Activity - Moderate (number of animals): 5
  Tremors - Mild (number of animals): 5
[3]; i.v. 3 mg/kg
  Mouse organ weight - i.v. treatment, Brain: 452.46
  Mouse organ weight - i.v. treatment, Heart: 113.88
  Mouse organ weight - i.v. treatment, Kidney: 265.49
  Mouse organ weight - i.v. treatment, Liver: 1316.2
  Mouse organ weight - i.v. treatment, Lungs: 151.37
  Mouse organ weight - i.v. treatment, Spleen: 70.61
[3]; i.v. 10 mg/kg
  Mouse organ weight - i.v. treatment, Brain: 451.76
  Mouse organ weight - i.v. treatment, Heart: 110.14
  Mouse organ weight - i.v. treatment, Kidney: 258.06
  Mouse organ weight - i.v. treatment, Liver: 1432.4
  Mouse organ weight - i.v. treatment, Lungs: 140.86
  Mouse organ weight - i.v. treatment, Spleen: 79.75
[3]; i.v. 30 mg/kg
  Mouse organ weight - i.v. treatment, Brain: 422.35
  Mouse organ weight - i.v. treatment, Heart: 102.55
  Mouse organ weight - i.v. treatment, Kidney: 221.42
  Mouse organ weight - i.v. treatment, Liver: 1090.2
  Mouse organ weight - i.v. treatment, Lungs: 130.37
  Mouse organ weight - i.v. treatment, Spleen: 68.35
[3]; female C57BL/6 J mice, single i.p. bolus up to 100 mg/kg, seven days
  body weight: without significant changes in body weight
[3]; i.p. single bolus 3 mg/kg, n=3
  Diarrhoea, mild (number of mice): 0
  No abnormalities (number of mice): 3
  Palpebral closure, mild (number of mice): 0
  Piloerection, mild (number of mice): 0
  Reduced activity, mild (number of mice): 0
  Reduced activity, moderate (number of mice): 0
  Right limb raised, mild (number of mice): 0
[3]; [4]
  Diarrhoea, mild (number of mice): 0
  No abnormalities (number of mice): 3
  Palpebral closure, mild (number of mice): 0
  Piloerection, mild (number of mice): 0
  Reduced activity, mild (number of mice): 0
  Reduced activity, moderate (number of mice): 0
  Right limb raised, mild (number of mice): 0
[3]; [5]
  Diarrhoea, mild (number of mice): 0
  No abnormalities (number of mice): 0
  Palpebral closure, mild (number of mice): 1
  Piloerection, mild (number of mice): 0
  Reduced activity, mild (number of mice): 3
  Reduced activity, moderate (number of mice): 0
  Right limb raised, mild (number of mice): 3
[3]; [6]
  Diarrhoea, mild (number of mice): 1
  No abnormalities (number of mice): 0
  Palpebral closure, mild (number of mice): 0
  Piloerection, mild (number of mice): 2
  Reduced activity, mild (number of mice): 2
  Reduced activity, moderate (number of mice): 2
  Right limb raised, mild (number of mice): 0
[3]; [7]
  Hunched posture, mild (number of mice): 0
  No abnormalities (number of mice): 5
  Palpebral closure, mild (number of mice): 0
  Piloerection, mild (number of mice): 0
  Reduced activity, mild (number of mice): 0
  Reduced activity, moderate (number of mice): 0
  Tremors, mild (number of mice): 0
[3]; [8]
  Hunched posture, mild (number of mice): 0
  No abnormalities (number of mice): 5
  Palpebral closure, mild (number of mice): 0
  Piloerection, mild (number of mice): 0
  Reduced activity, mild (number of mice): 0
  Reduced activity, moderate (number of mice): 0
[3]; [9]
  Hunched posture, mild (number of mice): 1
  No abnormalities (number of mice): 0
  Palpebral closure, mild (number of mice): 1
  Piloerection, mild (number of mice): 0
  Reduced activity, mild (number of mice): 4
  Reduced activity, moderate (number of mice): 5
  Tremors, mild (number of mice): 5
[3]; male C57BL/6 J mice, daily i.v. bolus up to 30 mg/kg for six days
  body or organ weight: without significant changes in body or organ weight
